This passage reports IC50 results from patent US5302589A, “Heterocyclic inhibitors of 5-α-testosterone reductase” (Glaxo, Inc., priority 1992, dated 1994).

For orientation: IC50 means the concentration that gives 50% inhibition.

In this experiment the target is T1, 5-α-reductase (Homo sapiens, UniProt P31213).
T1 construct: microsomes derived from human prostate tissue; from tissue; host or cells: human prostate tissue (BPH patients), microsomes
T1 sequence (P31213 1-254): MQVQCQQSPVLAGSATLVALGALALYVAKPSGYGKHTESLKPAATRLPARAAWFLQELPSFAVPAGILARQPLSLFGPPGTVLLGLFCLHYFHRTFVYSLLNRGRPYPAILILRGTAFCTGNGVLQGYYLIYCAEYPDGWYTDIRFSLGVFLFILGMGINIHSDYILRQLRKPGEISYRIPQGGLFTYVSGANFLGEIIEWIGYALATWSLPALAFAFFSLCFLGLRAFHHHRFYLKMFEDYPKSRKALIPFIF
In words: Steroid 5-α-reductase in vitro assay (prostatic microsomes, conversion of [3H]-testosterone to DHT). Format: biochemical. The settings on record: microsomes from human (BPH) prostate tissue; 100 nM [1,2,6,7-^3 H]-testosterone, 1 mM NADPH, 60 minutes at 37° C.; HPLC with radiochemical detection; read-out: 5-α-REDUCTASE in vitro INHIBITORY ACTIVITY IC50 Human. How it is done:
Enzyme activity may be determined using microsomes derived from prostate tissue of benign prostatic hypertrophy (BPH) patients or from rat prostate tissue. Prostatic microsomes were prepared by homogenization of the tissue, followed by differential centrifugation of the homogenate. Microsome extracts were incubated with 100 nM [1,2,6,7-^3 H]-testosterone, 1 mM NADPH and varying amounts of the a compounds of Formula (I), i.e., a test compound, for 60 minutes at 37° C. Corresponding incubations were carried out with no test compound as a control study. The percentage of conversion of testosterone to DHT in the presence of a test compounds compared to the corresponding conversion in the control study was estimated using high pressure liquid chromatography (HPLC) with radiochemical detection. The results of this assay as IC50 values for microsomes derived from human prostate tissue are show in Table 1.

`CCN(CC)C(=O)[C@H]1CC[C@H]2[C@@H]3Cn4nnc5c4[C@](C)(CCC5=O)[C@H]3CC[C@]12C` [Compound 1, 17β-N,N-Diethylcarbamoyl-6-azaandrost-4,6-diazo-4-en-3-one]: the 50% inhibitory concentration (IC50) fell in the range of 0.1 to 1 µM. Next, `CCN(CC)C(=O)[C@H]1CC[C@H]2[C@@H]3Cn4ccc5c4[C@](C)(CCC5=O)[C@H]3CC[C@]12C` [Compound 2, 17β-N,N-Diethylcarbamoyl-6-azaandrost-4,6-etheno-4-en-3-one]: 0.01 to 0.1 µM. Next, `CC(C)(C)NC(=O)[C@H]1CC[C@H]2[C@@H]3Cn4ccc5c4[C@](C)(CCC5=O)[C@H]3CC[C@]12C` [Compound 3, 17β-N-t-Butylcarbamoyl-6-azaandrost-4,6-etheno-4-en-3-one]: 0.01 to 0.1 µM; `CC(C)(C)NC(=O)[C@H]1CC[C@H]2[C@@H]3CN4CCCCC5=C4[C@](C)(CCC5=O)[C@H]3CC[C@]12C` [Compound 4, 17β-N-t-Butylcarbamoyl-6-azaandrost-4,6-butano-4-en-3-one]: 0.01 to 0.1 µM.
